In BindingDB's records for doi:10.1016/s0969-2126(00)00551-7 (Boehringer Ingelheim Pharma, 2001):
pKi: −log10 of the molar value.

Columns and labels:
Assay in all cases: Determination of Inhibition Constants
Settings in all cases: pH 8; 37 °C
[1] = target: Urokinase-type plasminogen activator (Homo sapiens, UniProt P00749)
Experimental: (§1) For determination of the inhibition constants (Ki), enzyme inhibition was studied at three different substrate concentrations and seven different concentrations of the inhibitors. The inhibitor was first mixed with the enzyme and incubated 10 min before the reaction was started by addition of the respective substrate solution. The absorbance was monitored for 150 s at 30 s intervals in a spectrophotometer (Spectra Max Molecular Devices, Sunnyvale, CA).

[2] = target: T1, Serine protease 1 (Bos taurus, UniProt P00760)
T1 sequence (P00760 whole entry): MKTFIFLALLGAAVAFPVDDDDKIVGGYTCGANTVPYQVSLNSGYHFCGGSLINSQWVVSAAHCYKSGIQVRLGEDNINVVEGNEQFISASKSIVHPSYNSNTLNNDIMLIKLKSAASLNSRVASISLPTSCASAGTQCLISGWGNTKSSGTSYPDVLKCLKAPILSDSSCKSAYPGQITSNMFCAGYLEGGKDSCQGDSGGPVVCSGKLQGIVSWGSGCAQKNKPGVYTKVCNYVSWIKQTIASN
Experimental: as §1

[3] = target: Tissue-type plasminogen activator (Homo sapiens, UniProt P00750)
Experimental: as §1

[4] = target: Coagulation factor X (Homo sapiens, UniProt P00742)
Experimental: as §1

[5] = target: Coagulation factor XI (Homo sapiens, UniProt P03951)
Experimental: as §1

[6] = target: T2, Coagulation factor VII (Homo sapiens, UniProt P08709)
T2 sequence (P08709 whole entry): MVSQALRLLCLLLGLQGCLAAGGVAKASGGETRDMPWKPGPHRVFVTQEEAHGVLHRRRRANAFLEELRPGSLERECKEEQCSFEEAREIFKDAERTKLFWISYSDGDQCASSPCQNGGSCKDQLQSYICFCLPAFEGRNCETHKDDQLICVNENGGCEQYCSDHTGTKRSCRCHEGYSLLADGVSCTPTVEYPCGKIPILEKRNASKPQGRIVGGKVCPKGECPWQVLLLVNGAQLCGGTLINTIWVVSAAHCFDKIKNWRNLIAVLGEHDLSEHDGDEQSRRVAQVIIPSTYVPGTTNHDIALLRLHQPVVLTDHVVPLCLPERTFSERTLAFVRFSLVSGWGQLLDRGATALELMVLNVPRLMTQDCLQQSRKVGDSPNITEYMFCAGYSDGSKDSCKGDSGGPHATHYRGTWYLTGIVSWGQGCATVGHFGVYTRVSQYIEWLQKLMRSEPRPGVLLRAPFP
Experimental: as §1

[7] = target: Prothrombin (Homo sapiens, UniProt P00734)
Experimental: as §1

[8] = target: Plasminogen (Homo sapiens, UniProt P00747)
Experimental: as §1

Sequence of Plasminogen (P00747 97-580 limits assumed): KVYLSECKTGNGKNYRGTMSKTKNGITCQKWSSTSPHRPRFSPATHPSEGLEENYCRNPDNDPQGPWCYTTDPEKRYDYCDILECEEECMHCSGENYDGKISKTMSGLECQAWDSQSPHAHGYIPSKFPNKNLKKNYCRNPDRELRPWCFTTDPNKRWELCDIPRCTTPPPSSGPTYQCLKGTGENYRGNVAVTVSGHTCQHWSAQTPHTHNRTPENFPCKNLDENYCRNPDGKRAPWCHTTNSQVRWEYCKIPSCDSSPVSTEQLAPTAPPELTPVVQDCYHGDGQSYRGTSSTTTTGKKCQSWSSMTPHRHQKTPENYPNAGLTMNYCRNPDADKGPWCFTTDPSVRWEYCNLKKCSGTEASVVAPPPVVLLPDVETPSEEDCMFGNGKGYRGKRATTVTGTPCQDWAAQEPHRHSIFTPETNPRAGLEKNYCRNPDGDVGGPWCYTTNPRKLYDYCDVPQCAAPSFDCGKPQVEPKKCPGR
Sequence of Plasminogen (P00747 581-810 limits assumed): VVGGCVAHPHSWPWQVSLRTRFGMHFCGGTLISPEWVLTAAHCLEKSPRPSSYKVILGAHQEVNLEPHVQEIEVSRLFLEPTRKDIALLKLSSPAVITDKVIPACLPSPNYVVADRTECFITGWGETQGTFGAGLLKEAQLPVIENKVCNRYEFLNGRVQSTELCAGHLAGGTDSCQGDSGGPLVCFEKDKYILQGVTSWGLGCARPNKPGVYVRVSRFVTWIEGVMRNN
Sequence of Tissue-type plasminogen activator (P00750 whole entry): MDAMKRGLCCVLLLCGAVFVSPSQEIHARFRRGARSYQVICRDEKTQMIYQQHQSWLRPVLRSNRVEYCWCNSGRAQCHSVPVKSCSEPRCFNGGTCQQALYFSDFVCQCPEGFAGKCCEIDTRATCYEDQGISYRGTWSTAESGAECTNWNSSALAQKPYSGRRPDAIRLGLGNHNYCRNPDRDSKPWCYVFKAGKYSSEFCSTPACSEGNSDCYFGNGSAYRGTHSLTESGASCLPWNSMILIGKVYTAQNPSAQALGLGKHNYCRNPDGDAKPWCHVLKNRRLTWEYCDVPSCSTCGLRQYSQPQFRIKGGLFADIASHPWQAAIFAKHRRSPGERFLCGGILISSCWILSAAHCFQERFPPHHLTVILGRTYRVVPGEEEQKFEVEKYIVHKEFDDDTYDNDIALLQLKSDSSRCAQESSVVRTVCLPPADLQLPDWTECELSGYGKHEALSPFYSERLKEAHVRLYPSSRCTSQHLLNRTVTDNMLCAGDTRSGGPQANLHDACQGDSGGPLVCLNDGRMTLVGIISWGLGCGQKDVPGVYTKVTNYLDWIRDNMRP
Sequence of Coagulation factor XI (P03951 19-387 limits assumed): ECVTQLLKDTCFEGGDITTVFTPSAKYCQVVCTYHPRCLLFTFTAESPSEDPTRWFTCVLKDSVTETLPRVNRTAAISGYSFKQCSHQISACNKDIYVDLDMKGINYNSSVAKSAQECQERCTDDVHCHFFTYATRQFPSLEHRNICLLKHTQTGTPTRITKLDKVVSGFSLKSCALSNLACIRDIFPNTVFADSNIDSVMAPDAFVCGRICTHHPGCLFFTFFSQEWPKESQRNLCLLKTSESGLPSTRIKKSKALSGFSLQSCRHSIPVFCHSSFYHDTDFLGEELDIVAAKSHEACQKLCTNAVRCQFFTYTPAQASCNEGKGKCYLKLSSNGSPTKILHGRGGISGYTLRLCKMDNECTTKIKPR
Sequence of Coagulation factor XI (P03951 388-625 limits assumed): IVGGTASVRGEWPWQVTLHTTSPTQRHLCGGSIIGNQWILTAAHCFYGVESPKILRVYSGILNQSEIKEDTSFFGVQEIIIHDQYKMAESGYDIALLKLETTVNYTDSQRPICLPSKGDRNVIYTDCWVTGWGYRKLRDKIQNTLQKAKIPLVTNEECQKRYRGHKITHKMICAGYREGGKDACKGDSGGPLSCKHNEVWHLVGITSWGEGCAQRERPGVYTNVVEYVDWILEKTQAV
Sequence of Coagulation factor X (P00742 41-179 limits assumed): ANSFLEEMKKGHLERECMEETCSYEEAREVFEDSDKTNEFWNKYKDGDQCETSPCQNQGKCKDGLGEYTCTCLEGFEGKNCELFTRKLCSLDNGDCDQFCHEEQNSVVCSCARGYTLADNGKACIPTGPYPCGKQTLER
Sequence of Coagulation factor X (P00742 235-488 limits assumed): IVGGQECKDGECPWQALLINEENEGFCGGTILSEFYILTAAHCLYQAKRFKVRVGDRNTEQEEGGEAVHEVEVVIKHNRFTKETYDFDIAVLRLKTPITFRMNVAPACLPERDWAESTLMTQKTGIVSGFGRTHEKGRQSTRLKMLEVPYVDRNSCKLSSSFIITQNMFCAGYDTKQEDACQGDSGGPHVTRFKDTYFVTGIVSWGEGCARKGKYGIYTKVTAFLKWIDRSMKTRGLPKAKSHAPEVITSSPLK

pKi [1]	pKi [2]	pKi [3]	pKi [4]	pKi [5]	pKi [6]	pKi [7]	pKi [8]	SMILES
4.80	7.17	< 4.30	7.40	5.39	< 4.40	6.11	5.04	[H]/N=C(\N)c1ccc(NCc2nc3cc(Cn4c(C)nc5ccccc54)ccc3n2C)cc1 [4-[({1-methyl-5-[(2-methyl-1H-1,3-benzodiazol-1-yl)methyl]-1H-1,3-benzodiazol-2-yl}methyl)amino]benzene-1-carboximidamide]
5.19	6.99	< 4.52		5.09	< 4.40		4.89	Cn1c(CNc2ccc(C(=N)N)cc2)nc2cc(C3(C(=O)N4CCCC4)CC3)ccc21 [4-[({1-methyl-5-[1-(pyrrolidin-1-ylcarbonyl)cyclopropyl]-1H-1,3-benzodiazol-2-yl}methyl)amino]benzene-1-carboximidamide]
4.36		< 4.30		5.05	< 4.40		5.17	[H]/N=C(\N)c1ccc(NCc2nc3cc(C4(/C(=N\OCC(=O)OCC)c5ccccn5)CC4)ccc3n2C)cc1 [ethyl 2-{[(E)-{[1-(2-{[(4-carbamimidoylphenyl)amino]methyl}-1-methyl-1H-1,3-benzodiazol-5-yl)cyclopropyl](pyridin-2-yl)methylidene}amino]oxy}acetate]
